According to US20090275727A1, “Peptide turn mimetics” (MIMETICA PTY LIMITED, priority 1998, published 2009):
Where a SMILES comes first, the peptide text is derived from it.

Experiment: Solubility in water noted when preparing the NMR sample
Type: physicochemical
Details: NMR run in 1:9 d3-TFE:H2O instead
Description: To a solution of Ac-GY(tBu)LLG-OMe 229 (58 mg, 0.09 mmol) in dichloromethane (2 mL) was added TFA (2 mL) and the solution stirred at rt for 1 h. The volatiles were removed under reduced pressure, and the residue dissolved in acetonitrile (1 mL) and water (1 mL). This solution was purified by preparative HPLC, to give the purified peptide 230 (12.6 mg) as a white solid. [M+H]^+=578.8; Analytical HPLC (0-40% B over 40 min, mL/min, 214 nm): tR=25.51 min; ^1H NMR, 600 MHz, 1:9 d3-TFE:H2O. Consistent with structure.

## COC(=O)CNC(=O)[C@H](CC(C)C)NC(=O)[C@H](CC(C)C)NC(=O)[C@H](Cc1ccc(O)cc1)NC(=O)CNC(C)=O [Compound 230, Ac-GYLLG-OMe] (HELM PEPTIDE1{[ac].G.Y.L.L.G.[CO[*:1]]}$$$$V2.0)
  Solubility in H2O: not soluble in H2O
